# Measured values reported in patent publication US8686187B2, “Ethoxy diphenyl ethane derivatives, preparation processes and uses thereof” (Shanghai Ecust Biomedicine Co., Ltd., priority 2008, dated 2014).
# Read-outs that look alike come from different tables or passages of the source.
# Key:
# [1] = system: S180 sarcoma transplanted tumor; assay: Tumor-inhibiting rate experiment, intravenous injection, S180 sarcoma transplanted tumor in mice; assay type: in vivo; conditions: for Tumor-inhibiting rate (%): d0-d12 seven times, tumor weight; for tumor volume observation in drug administered group: around the eighth day after drug administration
# Method: After 1 week for adaptation, mice are subcutaneously inoculated with S180 sarcoma tissues and randomly grouped after the tumor grows as much as the area of 100 to 300 mm^3; every compound is used for 6 mice in drug administered group and for 12 mice in control group, the administration doses are as below: 25, 50 mg/kg of ECB1P, ECB1GN hydrochloride, ECB1SN hydrochloride and positive controls ECA4P, ECA4GN hydrochloride, as well as 50, 100 mg/kg of positive controls CB1GA hydrochloride, CB1P and CA4P, the administration is given intravenously on Day d0, d2, d4, d6, d8, d10 and d12, seven times in total, measurement of tumor volume, mice weighing and data recording are performed three times every week, the mice are executed on the fourtheenth day after inoculation, tumor tissues are weighed to calculate the tumor-inhibiting rate, tumor weight inhibiting rate %=(1−average tumor weight in treatment group/average tumor weight in control group)×100%.
# Kunming mice = assay: Acute toxicity test of single mice intraperitoneal injection; assay type: in vivo; conditions: for LD50: 14 days observation
# Method: Kunming mice (half-and-half male and female, 17 to 22 grams heavy) are randomly grouped according to weights thereof, and during the test, the mice are divided, based on the proportion of 0.9, into 10 dose groups with each including 10 mice and having the maximal dose of 1500 mg/kg, the tested drugs having the respective doses of 1500, 1350, 1215, 1093, 984, 885, 797, 717, 645 and 581 mg/kg are administered in a manner of single intraperitoneal injection, mice observation and death rate recording are respectively performed once 0.25 h, 0.5 h, 1 h, 2 h, 4 h and 24 h after the drug administration, afterwards, everyday mice observation and death rate recording are performed for 14 days, the mice that are not dead are executed on the fifteenth day and are subjected to pathological anatomy.
# [2] = system: Human colorectal cancer cell HT-29; assay: Antitumor activity evaluation for in vitro cultured tumor cells (SRB); assay type: cell-based; conditions: for times stronger than positive control CB1: colorectal cancer HT-29
# [3] = system: Non-small cell lung cancer cell NCl-H292; assay: as above; assay type: cell-based
# Gastric cancer SGC-7901 = assay: as above; assay type: cell-based
# Liver cancer Bel-7402 = assay: as above; assay type: cell-based
# [4] = system: Human umbilical vein endothelial cell (HUVEC); assay: Proliferation inhibition of human umbilical vein endothelial cells (SRB); assay type: cell-based
# [5] = NCl-H292, 48 hours, SRB, read-out: IC50
# [6] = HT-29, 48 hours, SRB, read-out: IC50
# [7] = SGC-7901, 48 hours, SRB, read-out: IC50
# [8] = Bel-7402, 48 hours, SRB, read-out: IC50
compound,measurement,setting,value
"3,4,5-trimethoxy-4′-methoxydiphenylethane3′-o-disodium phosphate salt [CB1P]",Tumor-inhibiting rate (%),[1]; 50 mg/kg intravenously,28%
same,LD50,Kunming mice,1228 mg/kg
"COc1ccc(/C=C\c2cc(OC)c(OC)c(OC)c2)cc1O [CA4, (Z)-3,4,5-trimethoxy-3′-hydroxy-4′-methoxydiphenylethylene]",IC50,"[2]; Homo sapiens, HT-29, 48 hours, SRB, read-out: IC50",21 nM
same,IC50,[3]; [5],2400 nM
same,IC50,"Gastric cancer SGC-7901; Homo sapiens, SGC-7901, 48 hours, SRB, read-out: IC50",3.6 nM
same,IC50,"Liver cancer Bel-7402; Homo sapiens, Bel-7402, 48 hours, SRB, read-out: IC50",830 nM
same,IC50,"[4]; 48 hours, SRB, read-out: IC50",4.8 nM
same,IC50,"[4]; Homo sapiens, 48 h, SRB, read-out: IC50",4.8 to 7.7 nM
"COc1ccc(CCc2cc(OC)c(OC)c(OC)c2)cc1N [CB1N, 3,4,5-trimethoxy-3′-amino-4′-methoxydiphenylethane]",IC50,[2]; [6],39 nM
same,IC50,[3]; [5],3000 nM
same,IC50,Gastric cancer SGC-7901; [7],4.8 nM
same,IC50,Liver cancer Bel-7402; [8],2500 nM
same,IC50,"[4]; 48 hours, SRB, read-out: IC50",7.7 nM
"CCOc1ccc(/C=C\c2cc(OC)c(OC)c(OC)c2)cc1OP(=O)([O-])[O-].[Na+].[Na+] [ECA4P, (Z)-3,4,5-trimethoxy-4′-ethoxydiphenylethylene-3′-o-disodium phosphate salt]",Tumor-inhibiting rate (%),[1]; 25 mg/kg intravenously,43%
same,tumor volume observation in drug administered group,[1],tendency of tumor shrinkage
same,LD50,Kunming mice,906 mg/kg
"3,4,5-trimethoxy-3′-glycylamino-4′-ethoxydiphenylethane [ECB1GN hydrochloride]",Tumor-inhibiting rate (%),[1]; 25 mg/kg intravenously,40%
same,tumor volume observation in drug administered group,[1],tendency of tumor shrinkage
same,toxicity compared with positive controls,Kunming mice,toxicity lower than ethoxydiphenylethylene positive control compounds ECA4P and ECA4GN hydrochloride
same,LD50,Kunming mice,1012 mg/kg
"(Z)-3,4,5-trimethoxy-4′-methoxydiphenylethylene-3′-o-disodium phosphate salt [CA4P]",Tumor-inhibiting rate (%),[1]; 50 mg/kg intravenously,28%
same,LD50,Kunming mice,1276 mg/kg
"COc1ccc(CCc2cc(OC)c(OC)c(OC)c2)cc1O [CB1, 3,4,5-trimethoxy-3′-hydroxy-4′-methoxydiphenylethane]",IC50,[2]; [6],35 nM
same,IC50,[3]; [5],2800 nM
same,IC50,Gastric cancer SGC-7901; [7],4.2 nM
same,IC50,Liver cancer Bel-7402; [8],1700 nM
same,IC50,"[4]; 48 hours, SRB, read-out: IC50",5.6 nM
"CCOc1ccc(/C=C\c2cc(OC)c(OC)c(OC)c2)cc1N [ECA4N, (Z)-3,4,5-trimethoxy-3′-amino-4′-ethoxydiphenylethylene]",IC50,"[2]; Homo sapiens, HT-29, 48 h",0.15 nM
same,IC50,[3]; 48 h,100 nM
same,IC50,"Gastric cancer SGC-7901; Homo sapiens, SGC-7901, 48 h",0.19 nM
same,IC50,"Liver cancer Bel-7402; Homo sapiens, Bel-7402, 48 h",39 nM
same,IC50,"[4]; Homo sapiens, 48 h",0.76 nM
"CCOc1ccc(/C=C\c2cc(OC)c(OC)c(OC)c2)cc1O [ECA4, (Z)-3,4,5-trimethoxy-3′-hydroxy-4′-ethoxydiphenylethylene]",IC50,"[2]; Homo sapiens, HT-29, 48 h",0.28 nM
same,IC50,[3]; 48 h,160 nM
same,IC50,"Gastric cancer SGC-7901; Homo sapiens, SGC-7901, 48 h",0.25 nM
same,IC50,"Liver cancer Bel-7402; Homo sapiens, Bel-7402, 48 h",63 nM
same,IC50,"[4]; Homo sapiens, 48 h",0.8 nM
"CCOc1ccc(CCc2cc(OC)c(OC)c(OC)c2)cc1NC(=O)C(N)CO.Cl (centres unmarked) [ECB1SN hydrochloride, 3,4,5-trimethoxy-3′-serylamino-4′-ethoxydiphenylethane]",Tumor-inhibiting rate (%),[1]; 25 mg/kg intravenously,45%
same,tumor volume observation in drug administered group,[1],tendency of tumor shrinkage
same,toxicity compared with positive controls,Kunming mice,toxicity lower than ethoxydiphenylethylene positive control compounds ECA4P and ECA4GN hydrochloride
same,LD50,Kunming mice,1185 mg/kg
"3,4,5-trimethoxy-3′-glycylamino-4′-ethoxydiphenylethane [CB1GN hydrochloride]",Tumor-inhibiting rate (%),[1]; 50 mg/kg intravenously,26%
"CCOc1ccc(/C=C\c2cc(OC)c(OC)c(OC)c2)cc1NC(=O)CN.Cl [ECA4GN hydrochloride, (Z)-3,4,5-trimethoxy-3′-glycylamino-4′-ethoxydiphenylethane]",Tumor-inhibiting rate (%),[1]; 25 mg/kg intravenously,39%
same,Tumor-inhibiting rate (%),"[1]; 50 mg/kg intravenously, listed as ECA4GN hydrochlonde",64%
same,tumor volume observation in drug administered group,[1],tendency of tumor shrinkage
same,LD50,Kunming mice,912 mg/kg
"CCOc1ccc(CCc2cc(OC)c(OC)c(OC)c2)cc1O [ECB1, 3,4,5-trimethoxy-3′-hydroxy-4′-ethoxydiphenylethane]",IC50,[2]; [6],0.34 nM
same,times stronger than positive control CB1,[2],about 100 times
same,IC50,[3]; [5],170 nM
same,IC50,Gastric cancer SGC-7901; [7],0.28 nM
same,IC50,Liver cancer Bel-7402; [8],57 nM
same,IC50,"[4]; 48 hours, SRB, read-out: IC50",0.75 nM
"CCOc1ccc(CCc2cc(OC)c(OC)c(OC)c2)cc1N [ECB1N, 3,4,5-trimethoxy-3′-amino-4′-ethoxydiphenylethane]",IC50,[2]; [6],0.18 nM
same,times stronger than positive control CB1,[2],about 200 times
same,IC50,[3]; [5],120 nM
same,IC50,Gastric cancer SGC-7901; [7],0.15 nM
same,IC50,Liver cancer Bel-7402; [8],34 nM
same,IC50,"[4]; 48 hours, SRB, read-out: IC50",0.68 nM
"3,4,5-trimethoxy-4′-ethoxydiphenylethane-3′-o-disodium phosphate salt [ECB1P]",Tumor-inhibiting rate (%),[1]; 25 mg/kg intravenously,42%
same,tumor volume observation in drug administered group,[1],tendency of tumor shrinkage
same,toxicity compared with positive controls,Kunming mice,toxicity lower than ethoxydiphenylethylene positive control compounds ECA4P and ECA4GN hydrochloride
same,LD50,Kunming mice,1056 mg/kg
